Assay results as given in US10927123B2, “Modulators of the beta-3 adrenergic receptor useful for the treatment or prevention of disorders related thereto” (Arena Pharmaceuticals, Inc., priority 2016, dated 2021).

Target: Beta-3 Adrenergic Receptor (Homo sapiens (Human), UniProt P13945)
Assay: HTRF cAMP antagonist assay (IC50 determination)
Assay type: cell-based
Conditions: CHO-K1 cells stably expressing recombinant receptor; antagonism of isoproterenol at EC90; cAMP readout
Summary of the method: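 CHO-K1 cells stably expressing the recombinant receptor were preincubated with compound (10-point, 5-fold dilutions; top final typically 10 or 100 μM) in PBS with 1 mM IBMX, then stimulated with isoproterenol at its EC90 for 1 h at room temperature. cAMP was read by HTRF against an on-plate standard curve.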

Beta-3 Adrenergic Receptor, sequence (P13945 whole entry, species assumed): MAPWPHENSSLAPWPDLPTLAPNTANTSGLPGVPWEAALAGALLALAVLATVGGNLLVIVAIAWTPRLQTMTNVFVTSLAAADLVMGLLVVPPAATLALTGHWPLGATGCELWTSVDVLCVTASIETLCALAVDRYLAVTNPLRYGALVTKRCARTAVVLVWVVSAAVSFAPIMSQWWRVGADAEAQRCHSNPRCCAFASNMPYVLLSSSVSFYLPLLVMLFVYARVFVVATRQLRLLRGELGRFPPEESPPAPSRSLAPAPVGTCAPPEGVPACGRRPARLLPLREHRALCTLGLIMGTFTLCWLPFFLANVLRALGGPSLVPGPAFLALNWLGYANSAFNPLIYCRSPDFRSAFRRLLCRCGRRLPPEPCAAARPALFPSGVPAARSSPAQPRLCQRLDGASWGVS

SMILES | IC50
CN1CCOc2ncc(S(=O)(=O)N3CCC4(CC3)C[C@@H](NC[C@H](O)COc3cccc(S(=O)(=O)C5(CO)CC5)c3)CO4)cc21 [Compound 155, (S)-1-(3-(1-(hydroxymethyl)cyclopropylsulfonyl)phenoxy)-3-((R)-8-(1-methyl-2,3-dihydro-1H-pyrido[2,3-b][1,4]oxazin-7-ylsulfonyl)-1-oxa-8-azaspiro[4.5]decan-3-ylamino)propan-2-ol] | 48.2 nM
CCOc1ccc(-c2ccc(C3(N)CC3)cc2)cc1S(=O)(=O)N1CCC2(CC1)C[C@H](NC[C@H](O)COc1cccc(S(=O)(=O)CC)c1)CO2 [Compound 256, (S)-1-((S)-8-(4′-(1-aminocyclopropyl)-4-ethoxybiphenyl-3-ylsulfonyl)-1-oxa-8-azaspiro[4.5]decan-3-ylamino)-3-(3-(ethylsulfonyl)phenoxy)propan-2-ol] | 32.6 nM
Cc1ccnc(-c2cccc(S(=O)(=O)N3CCC4(CC3)C[C@@H](NC[C@H](O)COc3cccc(S(=O)(=O)CCO)c3)CO4)c2)c1 [Compound 129, (S)-1-(3-(2-hydroxyethylsulfonyl)phenoxy)-3-((R)-8-(3-(4-methylpyridin-2-yl)phenylsulfonyl)-1-oxa-8-azaspiro[4.5]decan-3-ylamino)propan-2-ol] | 485 nM
CS(=O)(=O)c1cccc(OC[C@@H](O)CNC2COC3(CCN(S(=O)(=O)c4cccc(-c5ccc(S(N)(=O)=O)cc5)c4)CC3)C2)c1 (stereo partly drawn) [Compound 42, 3′-(3-((S)-2-hydroxy-3-(3-(methylsulfonyl)phenoxy)propylamino)-1-oxa-8-azaspiro[4.5]decan-8-ylsulfonyl)biphenyl-4-sulfonamide] | 18.7 nM
NC1(c2ccc(-c3cc(S(=O)(=O)N4CCC5(CC4)C[C@H](NC[C@H](O)COc4cccc(S(=O)(=O)C6(CO)CC6)c4)CO5)ccc3F)cc2)CC1 [Compound 219, (S)-1-((S)-8-(4′-(1-aminocyclopropyl)-6-fluorobiphenyl-3-ylsulfonyl)-1-oxa-8-azaspiro[4.5]decan-3-ylamino)-3-(3-(1-(hydroxymethyl)cyclopropylsulfonyl)phenoxy)propan-2-ol] | 21.6 nM
NCc1ccc(-c2cccc(S(=O)(=O)N3CCC4(CC3)C[C@H](NC[C@H](O)COc3cccc(S(=O)(=O)C5(CO)CC5)c3)CO4)c2)cc1F [Compound 182, (S)-1-((S)-8-(4′-(aminomethyl)-3′-fluorobiphenyl-3-ylsulfonyl)-1-oxa-8-azaspiro[4.5]decan-3-ylamino)-3-(3-(1-(hydroxymethyl)cyclopropylsulfonyl)phenoxy)propan-2-ol] | 24.7 nM

Further lines, results first:

IC50 | SMILES
18.4 nM | CCCCNCc1ccc(-c2cccc(S(=O)(=O)N3CCC4(CC3)C[C@H](NC[C@H](O)COc3cccc(S(=O)(=O)C5(CO)CC5)c3)CO4)c2)cc1 [Compound 245, (S)-1-((S)-8-(4′-((butylamino)methyl)biphenyl-3-ylsulfonyl)-1-oxa-8-azaspiro[4.5]decan-3-ylamino)-3-(3-(1-(hydroxymethyl)cyclopropylsulfonyl)phenoxy)propan-2-ol]
4.42 nM | CS(=O)(=O)c1cccc(OC[C@@H](O)CNC2COC3(CCN(S(=O)(=O)c4ccc5ccccc5c4)CC3)C2)c1 (stereo partly drawn) [Compound 1, (2S)-1-(3-(methylsulfonyl)phenoxy)-3-(8-(naphthalen-2-ylsulfonyl)-1-oxa-8-azaspiro[4.5]decan-3-ylamino)propan-2-ol]
17.2 nM | CS(=O)(=O)c1cccc(OC[C@@H](O)CNC2COC3(CCN(S(=O)(=O)c4cccc(-c5cccnc5)c4)CC3)C2)c1 (stereo partly drawn) [Compound 63, (2S)-1-(3-(methylsulfonyl)phenoxy)-3-(8-(3-(pyridin-3-yl)phenylsulfonyl)-1-oxa-8-azaspiro[4.5]decan-3-ylamino)propan-2-ol]
9.1 nM | O=S(=O)(CF)c1cccc(OC[C@@H](O)CNC2COC3(CCN(S(=O)(=O)c4ccc5ccccc5c4)CC3)C2)c1 (stereo partly drawn) [Compound 86, (2S)-1-(3-(fluoromethylsulfonyl)phenoxy)-3-(8-(naphthalen-2-ylsulfonyl)-1-oxa-8-azaspiro[4.5]decan-3-ylamino)propan-2-ol]
